According to publication PMC5732040 (Cellular signalling, 2017):
Structures can show the parent of a compound that is named as a salt. Where two headings read alike, the source gives them in different places.

Experiments:
[1] = tested on: TNF-α production by LPS-stimulated splenic monocytes; assay: Cytokine assay: LPS-stimulated TNF-α production by splenic monocytes; assay type: cell-based, mouse; conditions: for inhibition of TNF-α production: CGS 21680 alone; for inhibition at 30 µM / inhibition at 100 µM: Mus musculus, Monocyte, 4 h
hA2AR = hA2AR (Homo sapiens, UniProt P29274); assay: Cell-free membrane-based cAMP assay; assay type: biochemical; conditions: HEK293-hA2AR cytosol-free membrane preparations, ADA 3 U/ml, 30 min, NBMPR 0–300 μM
Chain of hA2AR (P29274 whole entry): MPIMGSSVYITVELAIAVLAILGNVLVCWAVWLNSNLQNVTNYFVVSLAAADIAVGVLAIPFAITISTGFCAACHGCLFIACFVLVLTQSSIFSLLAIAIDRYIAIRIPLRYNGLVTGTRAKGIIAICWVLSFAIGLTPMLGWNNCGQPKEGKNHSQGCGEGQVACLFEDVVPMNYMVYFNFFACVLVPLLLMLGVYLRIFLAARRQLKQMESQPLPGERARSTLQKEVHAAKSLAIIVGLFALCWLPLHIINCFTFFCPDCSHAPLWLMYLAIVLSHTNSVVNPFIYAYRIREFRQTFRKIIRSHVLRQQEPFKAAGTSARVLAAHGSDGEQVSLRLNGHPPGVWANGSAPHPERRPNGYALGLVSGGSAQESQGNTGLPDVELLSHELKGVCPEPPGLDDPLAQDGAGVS

human A2AR [2] = biological target: T1, human A2AR (Homo sapiens, UniProt P29274); assay: Cell-based cAMP assay in CHO-hA2AR cells; conditions: 10 min
T1 sequence (P29274 whole entry): as above

[3] = tested on: CCL3 production by LPS-stimulated splenic monocytes; assay: Cytokine assay: LPS-stimulated CCL3 production by splenic monocytes; assay type: cell-based, mouse; conditions: A2AR intact and deficient monocytes, absence of ADA
[4] = cited from earlier work
[5] = tested on: CCL4 production by LPS-stimulated splenic monocytes; assay: Cytokine assay: LPS-stimulated CCL4 production by splenic monocytes; assay type: cell-based, mouse; conditions: absence of ADA, single agents
human A2AR [6] = biological target: T1, human A2AR; assay: ERK1/2 phosphorylation assay in CHO-hA2AR cells; conditions: inosine 1000 μM, AEA061 10 μM, 10 min

With `CCNC(=O)[C@H]1O[C@@H](n2cnc3c(N)nc(NCCc4ccc(CCC(=O)O)cc4)nc32)[C@H](O)[C@@H]1O` [CGS 21680, 4-[2-[[6-Amino-9-(N-ethyl-β-D-ribofuranuronamidosyl)-9H-purin-2-yl]amino]ethyl] benzenepropanoic acid hydrochloride] the “inhibition of TNF-α production” value ([1]; LPS-stimulated A2AR deficient monocytes, absence of ADA) was 6.7% and the “inhibition of TNF-α production” value ([1]; LPS-stimulated A2AR-intact monocytes, absence of ADA) was 39%.
In the case of `O=[N+]([O-])c1ccc(CSc2ncnc3c2ncn3[C@@H]2O[C@H](CO)[C@@H](O)[C@H]2O)cc1` [NBMPR, 6-S-[(4-Nitrophenyl)methyl]-6-thioinosine], the cAMP production (hA2AR) is reported as “dose-dependently increased cAMP production” and the cAMP production (human A2AR [2]; without ADA) is reported as “activated A2AR-mediated cAMP production”.
In the case of `OC[C@H]1O[C@@H](n2cnc3c(O)ncnc32)[C@H](O)[C@@H]1O` [inosine], the “inhibition of TNF-α production as single agent” value ([1]; LPS-stimulated A2AR intact monocytes, absence of ADA) is reported as “dose-dependently inhibited TNF-α production”, the inhibition at 30 µM ([1]; read-out: inhibition of LPS-stimulated TNF-α production, A2AR deficient monocytes, absence of ADA, 30 μM, 4 h) is reported as 5.2 ± 1.3% and the inhibition at 100 µM ([1]; read-out: inhibition of LPS-stimulated TNF-α production, A2AR deficient monocytes, absence of ADA, 100 μM, 4 h) is reported as 16.3 ± 0.7%. It also gave an inhibition at 30 µM ([1]; read-out: inhibition of LPS-stimulated TNF-α production, A2AR deficient monocytes, presence of ADA 3 U/ml, 30 μM, 4 h) of 5.2 ± 2.2%, an inhibition at 100 µM ([1]; read-out: inhibition of LPS-stimulated TNF-α production, A2AR deficient monocytes, presence of ADA 3 U/ml, 100 μM, 4 h) of 12.4 ± 1.2% and an inhibition at 30 µM ([1]; read-out: inhibition of LPS-stimulated TNF-α production, A2AR intact monocytes, absence of ADA, 30 μM, 4 h) of 18.6 ± 3.7%. The inhibition at 100 µM ([1]; read-out: inhibition of LPS-stimulated TNF-α production, A2AR intact monocytes, absence of ADA, 100 μM, 4 h) was 30.1 ± 1.3%, the inhibition at 30 µM ([1]; read-out: inhibition of LPS-stimulated TNF-α production, A2AR intact monocytes, presence of ADA 3 U/ml, 30 μM, 4 h) was 13.2 ± 1.9% and the inhibition at 100 µM ([1]; read-out: inhibition of LPS-stimulated TNF-α production, A2AR intact monocytes, presence of ADA 3 U/ml, 100 μM, 4 h) was 16.8 ± 1.6%. The “inhibition of CCL3 production” value [3] was “closely resembles that of TNF-α”, the cAMP production (human A2AR [2]; in the presence of ADA 3 U/ml) was “increased cAMP production” and the half-life [4] was 15 h. The “inhibition of CCL4 production” value [5] was “individually inhibited CCL4 production” and the ERK1/2 phosphorylation (human A2AR [6]) was “increased ERK1/2 phosphorylation”.
